# Experimental data from PMC7575509, “Phase I study of DFP-11207, a novel oral fluoropyrimidine with reasonable AUC and low Cmax and improved tolerability, in patients with solid tumors” (Investigational New Drugs, 2020).
# “Also recorded” adds a separate entry of the source.
# Key:
# [1] = Plasma pharmacokinetics, Food Effect Study (fed vs fasted); details: for detectability in plasma during fed and fasted dosing: 6 patients
# [2] = Urine pharmacokinetics, Phase I Study; assay type: in vivo, human (patients); details: Cycle 1, 0–48 hours after the DFP-11207 dose of 330 mg/m^2/day
# [3] = Plasma pharmacokinetics, Phase I Study (LC-MS/MS of DFP-11207 metabolites); details: for AUC(0-t) / Cmax / Tmax / concentration at 2 day (Cycle 1): human, po
# [4] = ref 18 (capecitabine), 19 (UFT), 20 (S-1); cited from earlier work
SMILES,difference in plasma levels (Cmax or AUClast) between fasted and fed conditions ([1]; in vivo),urinary excretion [2] [%],5-FU Cmax at steady state ([3]; DFP-11207 330 mg/m^2/day orally every 12 hours) [ng/mL],"AUC(0-t) ([3]; plasma, 330 mg/m2) [ng·h/mL]","Cmax ([3]; plasma, 330 mg/m2) [ng/mL]","Tmax ([3]; plasma, 330 mg/m2) [h]","concentration at 2 day (Cycle 1) ([3]; plasma, 330 mg/m^2/day) [ng/mL]","Cmax ([3]; plasma, 440 mg/m2) [ng/mL]","Tmax ([3]; plasma, 440 mg/m2) [h]","concentration at 2 day (Cycle 1) ([3]; plasma, 440 mg/m^2/day) [ng/mL]",blood concentrations maintained throughout the dose cycle ([3]; oral DFP-11207 at 330 and 440 mg/m^2/day),"AUClast, Mean (SD) ([3]; plasma, Day 1, oral DFP-11207 440 mg/m^2)",detectability in plasma during fed and fasted dosing ([1]; DFP-11207 300 mg twice daily),"AUC(0-t) ([3]; plasma, 440 mg/m2) [ng·h/mL]","difference in plasma levels (Cmax or AUClast) between fasted and fed conditions ([1]; DFP-11207 300 mg twice daily, patients serving as their own controls)",primary dose-limiting toxicity [4]
"O=c1[nH]cc(F)c(=O)[nH]1 [5-FU, 5-fluorouracil, reference compound]",no influence; also recorded: no clear differences,0.12,< 25,220,9.65,24,4.01 to 25.5,8.75,12,3.39 to 13,approximately 20 ng/mL,3; 311 (214) ng·h/mL,,,,
"Oc1cc(O)c(Cl)cn1 [CDHP, 5-chloro-2,4-dihydroxypyridine]",,1.98,,2410,90.4,24,,93.6,26,,,,detectable in plasma at all time points,2810,,
"O=C(O)c1cc(O)nc(O)c1 [CTA, citrazinic acid]",,0.07,,254,9.81,8,,9.72,4,,,,,388,no clear differences,
"CCOCn1cc(F)c(=O)[nH]c1=O [EM-FU, 1-ethoxymethyl-5-fluorouracil]",,0.71,,39900,1310,48,559 to 1380,1400,24,948 to 1770,,,detectable in plasma at all time points,49400,,
CCCCCOC(=O)Nc1nc(=O)n([C@@H]2O[C@H](C)[C@@H](O)[C@H]2O)cc1F [capecitabine],,,,,,,,,,,,,,,,hand-foot syndrome
